Assays:
Format in all cases: in vivo
[1] = tested on: Echinochloa crus-galli; assay: Test Example 4: herbicidal effect test by treatment of leave and stem in dry field farming (seven days after seeding); details: 120 g/10a active ingredient; emulsion sprayed seven days after seeding; evaluated 14 days after treatment
In short: (§1)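 Duplicate pots were scored 14 days post-spray by dry weight, herbicidal rate = {1 − treated/untreated average dry weight} × 100. The water-diluted emulsion, equivalent to 120 g active ingredient per 10 ares in 100 L, was applied seven days after sowing 20 seeds each into the upper 1 cm of alluvial soil.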

[2] = tested on: southern crabgrass; assay: as above; details: 120 g/10a active ingredient; emulsion sprayed seven days after seeding; evaluated 14 days after treatment
In short: as §1

[3] = tested on: Chenopodium album; assay: as above; details: 120 g/10a active ingredient; emulsion sprayed seven days after seeding; evaluated 14 days after treatment
In short: as §1

[4] = tested on: Amaranthus viridis; assay: as above; details: 120 g/10a active ingredient; emulsion sprayed seven days after seeding; evaluated 14 days after treatment
In short: as §1

[5] = tested on: Echinochloa crus-galli; assay: Test Example 3: herbicidal effect test by treatment of dry field farming soil (one day after seeding); details: 120 g/10a active ingredient, evaluated 14 days after treatment
In short: (§2)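 Compound emulsions are sprayed on the soil surface one day after sowing (120 g a.i. per 10 ares) before weeds emerge. Effect is expressed as percent dry-weight reduction versus untreated controls 14 days post-treatment.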

[6] = tested on: southern crabgrass; assay: as above; details: 120 g/10a active ingredient, evaluated 14 days after treatment
In short: as §2

[7] = tested on: Chenopodium album; assay: as above; details: 120 g/10a active ingredient, evaluated 14 days after treatment
In short: as §2

[8] = tested on: Amaranthus viridis; assay: as above; details: 120 g/10a active ingredient, evaluated 14 days after treatment
In short: as §2

[9] = tested on: Echinochloa crus-galli; assay: Test Example 1: herbicidal effect test by treatment of rice paddy soil (immediately after seeding); details: 120 g/10a active ingredient, dry weight vs untreated area, 14 days after treatment
In short: (§3)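 Values are herbicidal rates (%) derived from average plant dry weight in treated versus untreated pots 14 days after treatment, run in duplicate. Treatment was a water-diluted emulsion dropped into flooded paddy soil right after sowing, at 120 g active ingredient per 10 ares.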

[10] = tested on: broad leaf weeds (Lindernia pyxidaria and Monochoria vaginalis); assay: as above; details: 120 g/10a active ingredient, dry weight vs untreated area, 14 days after treatment
In short: as §3

[11] = tested on: Scirpus juncoides; assay: as above; details: 120 g/10a active ingredient, dry weight vs untreated area, 14 days after treatment
In short: as §3

[12] = tested on: Echinochloa crus-galli; assay: Test Example 2: herbicidal effect test by treatment during growing period in paddy rice cultivation (seven days after seeding); details: 120 g/10a active ingredient, assessed 14 days after treatment, dry weight vs untreated area
In short: (§4)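 Greenhouse flooded-pot test, seeds sown in puddled paddy soil; emulsion applied into water 7 d after seeding, 120 g a.i./10 a. Dry-weight-based herbicidal rate at 14 d, n=2.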

[13] = tested on: broad leaf weeds (Lindernia pyxidaria and Monochoria vaginalis); assay: as above; details: 120 g/10a active ingredient, assessed 14 days after treatment, dry weight vs untreated area
In short: as §4

[14] = tested on: Scirpus juncoides; assay: as above; details: 120 g/10a active ingredient, assessed 14 days after treatment, dry weight vs untreated area
In short: as §4

| SMILES | herbicidal effect (herbicidal rate), Echinochloa crus-galli [1] | herbicidal effect (herbicidal rate), southern crabgrass [2] | herbicidal effect (herbicidal rate), Chenopodium album [3] | herbicidal effect (herbicidal rate), Amaranthus viridis [4] | herbicidal rate, Echinochloa crus-galli [5] | herbicidal rate, southern crabgrass [6] | herbicidal rate, Chenopodium album [7] | herbicidal rate, Amaranthus viridis [8] | Herbicidal rate (%) Echinochloa crus-galli [9] | Herbicidal rate (%) Lindernia pyxidaria [10] | Herbicidal rate (%) Monochoria vaginalis [10] | Herbicidal rate (%) Scirpus juncoides [11] | Herbicidal rate (%) Echinochloa crus-galli [12] | Herbicidal rate (%) Lindernia pyxidaria [13] | Herbicidal rate (%) Monochoria vaginalis [13] | Herbicidal rate (%) Scirpus juncoides [14] |
| --- | --- | --- | --- | --- | --- | --- | --- | --- | --- | --- | --- | --- | --- | --- | --- | --- |
| CCOC(=O)N(c1ccccc1Cc1c(C)n(C(C)COC)oc1=O)S(=O)(=O)C(F)(F)F (stereo not drawn) [Compound 1-615] | 90% | 90% | 40% | 40% | 90% | 90% | 90% | 90% | 90% | 90% | 90% | 90% | 90% | 90% | 90% | 90% |
| CCOC(=O)N(c1ccccc1Cc1c(C)n(CCSC)oc1=O)S(=O)(=O)C(F)(F)F [Compound 1-620] | 90% | 90% | 40% | 40% | 90% | 90% | 90% | 90% | 90% | 90% | 90% | 90% | 90% | 90% | 90% | 90% |
| CCOC(=O)N(c1ccccc1Cc1c(C)n(C(C)c2ccccc2)oc1=O)S(=O)(=O)C(F)(F)F (stereo not drawn) [Compound 1-626] | 90% | 90% | 40% | 40% | 90% | 90% | 90% | 90% | 90% | 90% | 90% | 90% | 90% | 90% | 90% | 90% |
| CCC(C)n1oc(=O)c(Cc2ccccc2N(C(=O)OC(C)C)S(=O)(=O)C(F)(F)F)c1C (stereo not drawn) [Compound 1-642] | 90% | 90% | 40% | 40% | 90% | 90% | 90% | 90% | 90% | 90% | 90% | 90% | 90% | 90% | 90% | 90% |
| COCC(C)n1oc(=O)c(Cc2ccccc2N(C(=O)OC(C)C)S(=O)(=O)C(F)(F)F)c1C (stereo not drawn) [Compound 1-647] | 90% | 90% | 40% | 40% | 90% | 90% | 90% | 90% | 90% | 90% | 90% | 90% | 90% | 90% | 90% | 90% |
| CSCCn1oc(=O)c(Cc2ccccc2N(C(=O)OC(C)C)S(=O)(=O)C(F)(F)F)c1C [Compound 1-652] | 90% | 90% | 40% | 40% | 90% | 90% | 90% | 90% | 90% | 90% | 90% | 90% | 90% | 90% | 90% | 90% |
| Cc1c(Cc2ccccc2N(C(=O)OC(C)C)S(=O)(=O)C(F)(F)F)c(=O)on1C(C)c1ccccc1 (stereo not drawn) [Compound 1-653] | 90% | 90% | 40% | 40% | 90% | 90% | 90% | 90% | 90% | 90% | 90% | 90% | 90% | 90% | 90% | 90% |
| Cc1c(Cc2ccccc2N(C(=O)OCC(C)C)S(=O)(=O)C(F)(F)F)c(=O)on1C [Compound 1-666] | 90% | 70% | 50% | 40% | 90% | 100% | 40% | 0% | 100% | 80% | 100% | 90% | 100% | 90% | 90% | 90% |
| Cc1c(Cc2ccccc2N(C(=O)OCC(C)C)S(=O)(=O)C(F)(F)F)c(=O)on1C(C)(C)C [Compound 1-668] | 90% | 90% | 40% | 40% | 90% | 90% | 90% | 90% | 90% | 90% | 90% | 90% | 90% | 90% | 90% | 90% |
